This is an account of results in the METLIN SMRT retention time set (Domingo-Almenara et al. 2019).

This data set is described as follows: gradient 5% acetonitrile 3 min, to 50% in 2 min, to 85% in 15 min, held 3 min, 100 µL/min. The conditions noted are these: column: Zorbax Extend-C18 2.1 x 50 mm; eluents: water / acetonitrile, 0.1% formic acid. Summed up:
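Pure standards were run in mixtures of ~100 molecules by HPLC coupled to a quadrupole time-of-flight mass spectrometer. The column was a Zorbax Extend-C18 (2.1 × 50 mm, 1.8 μm) at 100 μL/min, with water and acetonitrile each containing 0.1% formic acid, in positive and negative ionization mode. Dead and dwell volumes were 40 μL and 900 μL. Retention time was taken from computationally picked adduct peaks, each manually inspected, with data collected over 3 months.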
`O=c1n(Cc2ccccc2Cl)nc2ccc(S(=O)(=O)N3CCCCC3)cn12` had an RP-LC retention time of 979 s.

Turning to `CN(C)c1ccc(-c2nc3cnccn3c2Nc2cccc(C(F)(F)F)c2)cc1`, the RP-LC retention time came to 887 s.

`CCc1nc(-c2csc(S(=O)(=O)N3CCCC(C(=O)Nc4ccc(F)c(F)c4)C3)c2)no1` (stereo not given) had an RP-LC retention time of 1090 s.

`Cc1nc(OCC(=O)Nc2ccccc2Br)c2ccccc2n1` showed an RP-LC retention time of 745 s.

For `CC(C)c1nnc2n1CCN(C(=O)c1nn(C)c3ccccc13)C2`, the RP-LC retention time stood at 647 s.

`O=c1n(Cc2cccc(F)c2)nc2c(S(=O)(=O)N3CCOCC3)cccn12` displayed an RP-LC retention time of 741 s.

The molecule `CCCN1C(=O)Cc2cc(C(=O)NCc3ccc(SC)cc3)ccc21` showed an RP-LC retention time of 829 s.

The molecule `O=C(NCc1noc(C2CCCC2)n1)c1coc(C2CC2)n1` had an RP-LC retention time of 821 s.

Molecule `O=C(CN1C(=O)CCSc2ccccc21)NCc1ccc(F)cc1` gave an RP-LC retention time of 794 s.

For `CNC(=O)C1CCCN(c2nc3ncn(CC(=O)Nc4c(C)cccc4C)c(=O)c3s2)C1` (stereo not given), the RP-LC retention time was found to be 661 s.

Regarding `O=C(Cn1c(=O)c2cccn2c2ccc(F)cc21)NC1CCCCC1`, the RP-LC retention time turned out to be 850 s.

With `O=C(CN1CC=C(c2cnn(-c3ccccc3)c2)CC1)NCc1ccco1`, the RP-LC retention time was 646 s.

Molecule `COc1ccccc1-c1nc(Cn2nnc(-c3nc(-c4ccc(F)cc4)no3)c2C)c(C)o1` registered an RP-LC retention time of 1160 s.

The molecule `O=C(Cn1c(-c2cnccn2)nc2ccccc21)N1CCN(c2ccccc2F)CC1` showed an RP-LC retention time of 750 s.

Consider `CCCc1cc(C2CCCN2C(=O)NCc2ccc(F)cc2)no1` (stereo not given), for which the RP-LC retention time is 873 s.

`Cc1ccc(CN2CCCn3nc(C(=O)NCCN4CCCCC4)cc3C2=O)cc1` showed an RP-LC retention time of 631 s.

As to `Cc1cccc(NC(=O)N2CCC(CCN)CC2)c1`, the RP-LC retention time stood at 586 s.

Regarding `CCc1ccc(-c2cc(C(F)(F)F)on2)cc1S(=O)(=O)N1CCN(c2ncccn2)CC1`, the RP-LC retention time came out at 1230 s.

Turning to `COc1ccc(Br)c(-c2nnc(C)o2)c1`, the RP-LC retention time was 797 s.

On to `O=C(Cn1cnc2c(sc3nc(-c4ccccc4)ccc32)c1=O)Nc1ccccc1F`, for which the RP-LC retention time was determined as 993 s.

Molecule `Cc1ccc(-n2nc(C)c(S(=O)(=O)Nc3ccc(S(N)(=O)=O)cc3)c2C)cc1` yielded an RP-LC retention time of 765 s.

Turning to `COCCC1CCN(C(=O)COc2ccc(Cl)cc2)CC1`, the RP-LC retention time was found to be 849 s.

On to `Cc1ccc2c(Nc3ccc4c(c3)OCCO4)c(C(=O)N3CCOCC3)cnc2n1`, for which the RP-LC retention time was 577 s.

The molecule `Cc1cccc(NC(=O)N2C[C@@H](F)C[C@H]2C(=O)N2CCc3ccccc3C2)c1C` displayed an RP-LC retention time of 811 s.

The molecule `CCOc1ccc(NC(=O)N2CCC(C)(C(=O)NCc3ccc(F)cc3)CC2)cc1` yielded an RP-LC retention time of 796 s.

`COC(=O)c1c(NCc2cccc(Br)c2)c2cc(F)ccc2[nH]c1=O` gave an RP-LC retention time of 831 s.

As to `COc1ccc(-c2nc3ccc(Cl)cn3c2Nc2ccc(C)cc2)cc1`, the RP-LC retention time turned out to be 838 s.

In turn, `COc1ccc(-n2nc3c(N4CCCC(C(=O)NCCc5ccccc5)C4)nnc(C)c3c2C)cc1` (stereo not given) registered an RP-LC retention time of 740 s.

The molecule `COCC1(O)CCOC2(CCN(Cc3cccc(F)c3F)CC2)C1` (stereo not given) displayed an RP-LC retention time of 589 s.

`CSc1ccc(CNC(=O)C2CCCN(c3cnc4nc(C)c(C)nc4c3)C2)cc1` (stereo not given): the RP-LC retention time worked out at 755 s.

Take `CC1CCCCN1CCNC(=O)C1CC(=O)N(c2ccc3c(c2)CCN3C(=O)C2CC2)C1` (stereo not given): the RP-LC retention time came out at 578 s.

For the molecule `Cc1cccc(Sc2nccnc2N2CCC(C(=O)NCCC(C)C)CC2)c1`, the RP-LC retention time came out at 1100 s.

Molecule `CCC(C)NC(=O)c1nc(Cn2c(=O)oc3ccc(Cl)cc32)no1` (stereo not given) returned an RP-LC retention time of 922 s.

In turn, `CC(NC(=O)c1cc(-c2ccc(F)cc2)cn1C)c1cccnc1` (stereo not given) came in with an RP-LC retention time of 680 s.

`Cn1c(=O)c2c(ncn2CC(=O)N2CCCn3nc(-c4ccc(C(F)(F)F)cc4)cc3C2)n(C)c1=O` gave an RP-LC retention time of 763 s.

`CCOC(=O)C1CCC(CNC(=O)N2CCN(Cc3nc4ccccc4o3)CC2)CC1` (stereo not given) returned an RP-LC retention time of 676 s.

`O=C(Nc1ccccc1F)N1CCN(c2cc(-c3ccncc3)[nH]n2)CC1` displayed an RP-LC retention time of 553 s.

The molecule `COCCNC(=O)CCC1CCN(c2cc(NC3CC3)ncn2)CC1` registered an RP-LC retention time of 572 s.

For the molecule `CCCc1ccc(S(=O)(=O)N2CCC(C(=O)NCc3csc(-c4cccs4)n3)CC2)cc1`, the RP-LC retention time is 1050 s.

In the case of `Cc1ccsc1C(=O)N1CCC2(CCCCO2)CC1`, the RP-LC retention time was 780 s.

Turning to `COc1ccc(NC(=O)C2CCN(S(=O)(=O)c3c(C)[nH]c(C)c3C(=O)N3CCCC3)CC2)cc1`, the RP-LC retention time was determined as 693 s.

For the molecule `CCN(CC)CCNC(=O)C1CCN(C2=NS(=O)(=O)C(c3ccc(C)c(C)c3)=C2C)CC1`, the RP-LC retention time is 666 s.

Take `O=C(c1cccc(Cl)c1)N(CCS(=O)(=O)N1CCNCC1)CC1CCCO1` (stereo not given): the RP-LC retention time was found to be 618 s.

Molecule `Cc1cc(NC(=O)C2CCC2)nn1Cc1ccccc1` returned an RP-LC retention time of 841 s.

`COc1cccc(N2CCN(c3ccnc(SCC(=O)NCCCc4ccccc4)n3)CC2)c1` yielded an RP-LC retention time of 804 s.

The molecule `CCCCNC(=O)CN1C(=O)CC(c2cccs2)=Nc2ccccc21` yielded an RP-LC retention time of 835 s.

Molecule `O=C(Cc1csc(SCc2cccc(Cl)c2)n1)Nc1ccc2c(c1)OCCO2` gave an RP-LC retention time of 953 s.

As to `CCOC(=O)c1ccc2nc(C(F)(F)F)nc(NCc3ccc(Cl)cc3)c2c1`, the RP-LC retention time came to 1240 s.

On to `CN1CCCn2cc(S(=O)(=O)Nc3ccc(F)cc3Cl)cc2C1=O`, for which the RP-LC retention time was determined as 696 s.

Take `CN(C)[C@@H]1CN(C(=O)c2cccc(Cl)c2)C[C@H]1CO`: the RP-LC retention time came to 559 s.

Take `CC1CCN(S(=O)(=O)c2ccc(-c3nnc(C(=O)NCCCN4CCCCCC4)o3)cc2)CC1`: the RP-LC retention time is 712 s.

As for `O=C(Nc1ccc(C(=O)NCCCN2CCN(C3CCCCC3)CC2)cc1)C1=CSCCO1`, the RP-LC retention time was determined as 579 s.

`COc1cccc(CN2CCC(N3C[C@H](OC)[C@@H]3c3cccnc3)CC2)n1` gave an RP-LC retention time of 504 s.

The molecule `COc1ccc(NC(=O)Cn2c(=O)n(-c3ccccc3)c(=O)c3c2cc(C)n3C)cc1OC` displayed an RP-LC retention time of 791 s.

`CCC(C)NC(=O)c1ccc2c(c1)CCCN2S(C)(=O)=O` (stereo not given): the RP-LC retention time came to 754 s.

`CCCC(=O)Nc1cc2c(cc1SC(C)C)n(C)c(=O)n2C` had an RP-LC retention time of 852 s.

In turn, `O=C1CC(c2ccc(O)cc2)c2c(c(C(=O)O)cn2-c2cccc(C(F)(F)F)c2)N1` (stereo not given) displayed an RP-LC retention time of 746 s.

`Cc1ccccc1-c1nc(C2CCN(S(=O)(=O)c3ccc4c(c3)CCCC4)CC2)no1` returned an RP-LC retention time of 1380 s.

As for `CCOC(=O)c1c(C)n(C)c2ccc(OC(C)C(=O)OC)cc12` (stereo not given), the RP-LC retention time was 894 s.

As to `Cc1ccc(C(=O)N2CCCCC2c2nncn2CC2CC2)cn1` (stereo not given), the RP-LC retention time was 575 s.

The molecule `CCNC(=O)c1cc(C)nc2ccc(C(C)C)cc12` gave an RP-LC retention time of 697 s.

`C=CCn1c(SCC(=O)NCC2CCCO2)nc2scc(-c3ccc(C)o3)c2c1=O` (stereo not given) came in with an RP-LC retention time of 895 s.

`Cc1nc2cccnc2n1CCN1CCN(C(=O)Nc2ccccc2Cl)CC1` yielded an RP-LC retention time of 584 s.

In turn, `Fc1ccccc1-c1ccc(CNCc2ccccn2)o1` gave an RP-LC retention time of 655 s.

Take `O=C(Cn1ccc2ccc(N3CCOCC3)nc21)N1CCN(c2ccc(Cl)cc2)CC1`: the RP-LC retention time stood at 1000 s.

With `O=c1c2c(CO)c(-c3ccccc3)nn2ccn1CCOc1ccccc1`, the RP-LC retention time stood at 752 s.

Turning to `CCCNC(=O)C1CCN(c2ccc(SCC(=O)Nc3ccc(OC)c(OC)c3)nn2)CC1`, the RP-LC retention time was 595 s.

The molecule `COc1cccc(C(=O)NC2(C(F)(F)F)C(=O)N(C3CCCCC3)C(C)=C2C(C)=O)c1` (stereo not given) gave an RP-LC retention time of 987 s.

In turn, `CS(=O)(=O)Nc1ccc(C2(C(=O)NCc3ccc4c(c3)OCO4)CCCCC2)cc1` had an RP-LC retention time of 857 s.

On to `CC(=O)N1CCc2sc(S(=O)(=O)N3CCN(c4ccccc4C)CC3)cc2C1`, for which the RP-LC retention time was found to be 995 s.

In the case of `CCCn1cc(CCNS(=O)(=O)c2ccc(F)cc2Cl)c2cccnc21`, the RP-LC retention time stood at 877 s.

Turning to `COc1ccc(NC(=O)c2c(C)oc3nc(C)nc(N4CCOCC4)c23)cc1OC`, the RP-LC retention time amounted to 711 s.

On to `CCCCC(=O)Nc1ccc2nc(N3CCN(CCC)CC3)cc(C(=O)O)c2c1`, for which the RP-LC retention time was found to be 590 s.

With `Cc1cc(N2CCN(C(=O)Nc3cccc(F)c3)CC2)nc(N2CCCC2)n1`, the RP-LC retention time was determined as 680 s.

On to `CSc1cccc(NC(=O)N2CCc3nc[nH]c3C2)c1`, for which the RP-LC retention time amounted to 590 s.

With `CCn1ccc(C(=O)NCc2cccnc2Oc2ccccc2)n1`, the RP-LC retention time came out at 705 s.

On to `Cc1cccc(N2CCN(Cc3nc(-c4ccc(N5CCCCC5)nc4)no3)CC2)c1C`, for which the RP-LC retention time was 1160 s.

In turn, `CC(=O)c1cccc(NC(=O)Cn2c(=O)n(-c3ccc(F)cc3)c(=O)c3c2cc(C)n3C)c1` came in with an RP-LC retention time of 910 s.

In the case of `COc1cc(NC(=O)Cn2c(N3CCOCC3)nc(C)cc2=O)cc(OC)c1`, the RP-LC retention time was found to be 655 s.

Consider `O=C(Cn1c(=O)c2cccn2c2ccc(F)cc21)N1CCCCC1`, for which the RP-LC retention time stood at 795 s.
